Experimental findings from patent US12595252B2, “Inhibitors of SARM1” (DISARM THERAPEUTICS, INC., priority 2019, dated 2026) are described below.

A word on the IC50: it is the concentration needed to halve the response being measured.

Where two headings read alike, the source gives them in different places.

The target of this experiment is T1, SARM1 (Homo sapiens, UniProt Q6SZW1).
T1 construct: made in house; host or cells: NRK1-HEK293T cells, transiently transfected; clarified lysate used unpurified
T1 sequence (Q6SZW1 with tags, fused parts or gaps): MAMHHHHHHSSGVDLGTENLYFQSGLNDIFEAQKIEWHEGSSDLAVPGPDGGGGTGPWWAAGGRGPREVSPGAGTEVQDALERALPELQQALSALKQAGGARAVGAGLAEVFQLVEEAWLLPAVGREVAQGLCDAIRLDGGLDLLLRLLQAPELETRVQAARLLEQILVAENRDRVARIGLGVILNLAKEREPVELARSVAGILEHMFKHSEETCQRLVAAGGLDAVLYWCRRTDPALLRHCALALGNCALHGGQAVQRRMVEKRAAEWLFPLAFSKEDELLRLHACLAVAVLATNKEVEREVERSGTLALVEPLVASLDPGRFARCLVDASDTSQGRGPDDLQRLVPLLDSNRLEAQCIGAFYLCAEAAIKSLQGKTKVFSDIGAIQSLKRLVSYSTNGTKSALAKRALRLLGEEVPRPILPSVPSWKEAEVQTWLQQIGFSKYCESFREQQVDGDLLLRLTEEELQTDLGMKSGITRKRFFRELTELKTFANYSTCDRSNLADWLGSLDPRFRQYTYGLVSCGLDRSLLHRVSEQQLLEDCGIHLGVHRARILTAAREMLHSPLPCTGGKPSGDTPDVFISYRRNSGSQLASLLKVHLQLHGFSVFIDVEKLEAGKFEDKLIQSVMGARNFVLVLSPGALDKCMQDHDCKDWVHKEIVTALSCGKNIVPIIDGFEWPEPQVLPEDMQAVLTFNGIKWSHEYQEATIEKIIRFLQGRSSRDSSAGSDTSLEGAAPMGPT
Description: ARM-SAM-TIR SARM1 IC50 assay (NADase activity, NAD+ cleavage). It is filed as biochemical. As for the experimental part:
This Example describes an assay of ARM-SAM-TIR NADase activity and use of this assay to measure the efficacy of compounds of Formula I to block SARM1 mediated NAD+ cleavage. This assay is optimized in such a way as to characterize the efficacy of the compounds in Formula I to inhibit SARM1 activity and to calculate an IC50 value for each compound. This assay makes use of full length SARM1, which encompasses the ARM, SAM and TIR domains.
NRK1-HEK293T cells were seeded onto 150 cm^2 plates at 20×10^6 cells per plate. The next day, the cells were transfected with 15 μg ARM-SAM-TIR expression plasmid, SEQ ID NO: 1.
The cultures were supplemented with 1 mM NR at time of transfection to minimize toxicity from ARM-SAM-TIR overexpression. Forty-eight hours after transfection, cells were harvested, pelleted by centrifugation at 1,000 rpm (Sorvall ST 16R centrifuge, Thermo Fisher), and washed once with cold PBS (0.01 M phosphate buffered saline NaCl 0.138 M; KCl 0.0027 M; pH 7.4). The cells were resuspended in PBS with protease inhibitors (cOmplete™ protease inhibitor cocktail, Roche product #11873580001) and cell lysates were prepared by sonication (Branson Sonifer 450, output=3, 20 episodes of stroke). The lysates were centrifuged (12,000×g for 10 min at 4° C.) to remove cell debris and the supernatants (containing ARM-SAM-TIR protein) were stored at −80° C. for later use in the in vitro ARM-SAM-TIR NADase assay (see below). Protein concentration was determined by the Bicinchoninic (BCA) method and used to normalize lysate concentrations.
The enzymatic assay was performed in a 384-well polypropylene plate in Dulbecco's PBS buffer in a final assay volume of 20 μL. ARM-SAM-TIR lysate with a final concentration of 5 μg/mL was pre-incubated with the respective compound at 1% DMSO final assay concentration over 2 h at room temperature. The reaction was initiated by addition of 5 μM final assay concentration of NAD+ as substrate. After a 2 hr room temperature incubation, the reaction was terminated with 40 μL of stop solution of 7.5% trichloroacetic acid in acetonitrile. The NAD+ and ADPR concentrations were analyzed by a RapidFire High Throughput Mass Spectrometry System (Agilent Technologies, Santa Clara, Calif.) using an API4000 triple quadrupole mass spectrometer (AB Sciex Framingham, Mass.).

[1] abbreviates: ARM-SAM-TIR lysate 5 μg/mL from NRK1-HEK293T cells, 2 h pre-incubation, 5 μM NAD+, 2 hr room temperature, NAD+ and ADPR by RapidFire MS, read-out: SARM1 IC50.

Turning to `Brc1cncc(OCc2cccnc2)n1` [Example 188], the IC50 under setting [1] was more than 30 µM.
`CCN1CCC(n2cc(CNc3cncc(OC)n3)cn2)CC1` [Example 120]: under setting [1], the IC50 is less than 5 µM.
Same read-out and setting: the value for `COc1cncc(NCc2cn(C)nc2C)n1` [Example 206] was more than 30 µM; that for `CCOc1cncc(NS(C)(=O)=O)n1` [Example 195] was more than 30 µM.
Same read-out and setting: as for `COc1cncc(NCc2ccc(N3CCNC(=O)C3)nc2)n1` [Example 114], the figure is 5 to 15 µM; as for `COc1cncc(NCc2cccc(C#N)c2)n1` [Example 128], 5 to 15 µM; as for `COc1cncc(NCc2cnc3c(c2)ncn3C)n1` [Example 48], 15 to 30 µM.
Same read-out and setting: as for `COc1cncc(NCc2ccn(C)c2)n1` [Example 42], the figure is 5 to 15 µM; as for `COc1cc(NCc2cc[nH]c(=O)c2)cnn1` [Example 176], more than 30 µM.
Turning to `CCN(C)c1cncc(NCc2cccnc2)n1` [Example 30], under setting [1], the half-maximal inhibitory concentration (IC50) is more than 30 µM.
The same measure, in the same setting: as for `COc1cncc(NCc2ccc(S(N)(=O)=O)cc2)n1` [Example 63], the figure is less than 5 µM.
The same measure, in the same setting: the value for `CNc1cncc(NCCCCO)n1` [Example 166] was 15 to 30 µM; that for `COc1cncc(NCc2cccnc2O)n1` [Example 145] was more than 30 µM; that for `COc1cncc(NCc2cc[nH]c(=O)c2)n1` [Example 66] was 5 to 15 µM.
`COc1cncc(NCc2ccc(N3CCN(c4ccccc4)CC3)nc2)n1` [Example 216]: the IC50 under setting [1] is more than 30 µM.
On to `COc1cncc(NCc2ccc(N3CCOCC3)nc2)n1` [Example 77], for which the IC50 under setting [1] was in the range of 5 to 15 µM.
Same read-out and setting: as for `c1cncc(CNc2cncc(-n3cccn3)n2)c1` [Example 28], the figure is 5 to 15 µM; as for `COc1cncc(NC(C)c2cccnc2)n1` (stereo not shown) [Example 31], 15 to 30 µM; as for `COc1cncc(NCc2cn(C)cn2)n1` [Example 55], 15 to 30 µM.
On the same count and under the same terms, as for `COc1cncc(NS(=O)(=O)c2ccccc2)c1` [Example 209], the figure is more than 30 µM.
On to `Cc1ncc(Cl)nc1NCc1cccnc1` [Example 201], for which, under setting [1], the IC50 is more than 30 µM.
The same measure, in the same setting: the value for `COc1cncc(NCc2cnn3ccccc23)n1` [Example 90] was 15 to 30 µM; that for `COc1cnc(NCc2cccnc2)cn1` [Example 203] was more than 30 µM; that for `CNc1cc(OC)cnn1` [Example 161] was more than 30 µM.
The same measure, in the same setting: as for `OCc1cncc(NCc2cccnc2)n1` [Example 215], the figure is more than 30 µM; as for `CCCCN1CCN(c2ccc(CNc3cncc(OC)n3)cn2)CC1` [Example 148], 5 to 15 µM; as for `CCOc1cncc(NCc2ccccn2)n1` [Example 185], more than 30 µM.
Still for that read-out and setting: as for `CNc1cncc(OCCCNC(=O)OC(C)(C)C)n1` [Example 168], the figure is more than 30 µM; as for `CNc1cncc(OCCCCNC(=O)OC(C)(C)C)n1` [Example 169], more than 30 µM.
In the case of `COc1cncc(NCc2ccc(C3=CCN(C)CC3)nc2)n1` [Example 124], the IC50 is 5 to 15 µM.
As to `Cn1cc(CNc2cncc(OCC(F)(F)F)n2)cn1` [Example 117], under setting [1], the half-maximal inhibitory concentration (IC50) is more than 30 µM.
For the compound `Brc1cncc(NCc2cccnc2)n1` [Example 186], under setting [1], the IC50 is more than 30 µM.
The same measure, in the same setting: the value for `COc1cncc(NCc2cnn(C(C)C)c2)n1` [Example 92] was 5 to 15 µM; that for `N#Cc1cncc(NCc2cccnc2)n1` [Example 154] was more than 30 µM.
On the same count and under the same terms, the value for `COc1cncc(NCc2cnc(C)o2)n1` [Example 121] was 5 to 15 µM; that for `CNc1ccnc(NC)n1` [Example 217] was more than 30 µM.
In the case of `COc1cncc(NCc2ccc(N3CCN(C(C)C)CC3)nc2)n1` [Example 147], under setting [1], the IC50 fell in the range of 5 to 15 µM.
The same measure, in the same setting: the value for `COc1cncc(NCc2ccc(Br)cc2)n1` [Example 101] was less than 5 µM.
On the same count and under the same terms, as for `COc1cncc(NCc2ccc(NC(C)=O)cc2)n1` [Example 47], the figure is less than 5 µM.
On the same count and under the same terms, the value for `CCN1CCN(c2ccc(CNc3cncc(OC)n3)cn2)CC1` [Example 8] was 5 to 15 µM; that for `CNc1cncc(Br)n1` [Example 218] was more than 30 µM.
Turning to `COc1cncc(NCc2cnn(CCN(C)C)c2)n1` [Example 104], under setting [1], the IC50 was 5 to 15 µM.
As for `COc1cncc(NCc2cccc(F)c2)n1` [Example 39], the IC50 under setting [1] lay within 5 to 15 µM.
The same measure, in the same setting: as for `CCN1CCN(c2ncc(CNc3cncc(OC)n3)cn2)C(C)C1` (stereo not shown) [Example 122], the figure is 5 to 15 µM.
Consider `COc1cncc(NCc2ccc(C(F)(F)F)nc2)n1` [Example 91], for which the IC50 under setting [1] was in the range of 15 to 30 µM.
The same measure, in the same setting: as for `COc1cncc(NCc2cccnc2)c1C` [Example 34], the figure is more than 30 µM; as for `Cn1cc(CNc2cncc(NCCCCO)n2)cn1` [Example 151], 5 to 15 µM; as for `COc1cncc(NC(C)c2ccccc2)n1` (stereo not shown) [Example 32], 15 to 30 µM.
Take `CCNc1cncc(NCc2cccnc2)n1` [Example 25]: the IC50 under setting [1] lay within 15 to 30 µM.
On the same count and under the same terms, as for `COc1cncc(NCc2ccc(N)nc2)n1` [Example 118], the figure is less than 5 µM.
On the same count and under the same terms, the value for `COc1cncc(NCc2ccc(C(=O)O)cc2)n1` [Example 76] was more than 30 µM; that for `CNc1cncc(OCCCN)n1` [Example 172] was more than 30 µM.
For the compound `COc1cncc(NCc2ccc(Cl)nc2)n1` [Example 44], the IC50 was in the range of 5 to 15 µM.
Consider `CCOc1cncc(NC(C)=O)n1` [Example 193], for which the 50% inhibitory concentration (IC50) under setting [1] was more than 30 µM.
Still for that read-out and setting: as for `COc1cncc(NCc2cnn(-c3ccccc3)c2)n1` [Example 73], the figure is 5 to 15 µM; as for `COc1cncc(NCc2ccc(-c3nn[nH]n3)cc2)n1` [Example 158], 15 to 30 µM; as for `COc1cncc(NCc2cnn(C3CCCCC3)c2)n1` [Example 106], 5 to 15 µM.
Same read-out and setting: as for `COc1cncc(NCc2cnc(N3CCNCC3C)nc2)n1` (stereo not shown) [Example 112], the figure is 5 to 15 µM; as for `COc1cncc(NC(=O)c2ccccc2)c1` [Example 110], more than 30 µM.
For the compound `CCCCCOc1cncc(NCc2cccnc2)n1` [Example 15], the IC50 under setting [1] is more than 30 µM.
On the same count and under the same terms, as for `COc1cncc(NCc2cnn(S(C)(=O)=O)c2)n1` [Example 150], the figure is 5 to 15 µM.
On the same count and under the same terms, as for `COc1cnnc(NCc2cn[nH]c2)c1` [Example 135], the figure is 15 to 30 µM.
Take `COc1cncc(NCc2ccc(NCCN(C)C)nc2)n1` [Example 113]: the IC50 under setting [1] lay in the range of 5 to 15 µM.
On the same count and under the same terms, as for `COc1cc(NCc2ccc(S(N)(=O)=O)cc2)cnn1` [Example 175], the figure is more than 30 µM; as for `COc1cncc(NCc2ccn(C)n2)n1` [Example 54], 5 to 15 µM.
The same measure, in the same setting: the value for `COc1cc(NC(=O)c2cccnc2)cnn1` [Example 136] was 5 to 15 µM; that for `Oc1cncc(NCc2cccnc2)c1` [Example 14] was 5 to 15 µM; that for `COc1cncc(NCc2ccoc2)n1` [Example 58] was 5 to 15 µM.
Same read-out and setting: the value for `COc1cncc(NCc2cccc(S(C)(=O)=O)c2)n1` [Example 127] was 15 to 30 µM.
`COc1cncc(NCc2ccc(N3CCNCC3)nc2)n1` [Example 81] came in with an IC50 of 5 to 15 µM.
Take `COc1cncc(NCc2cccc(S(N)(=O)=O)c2)n1` [Example 211]: the IC50 under setting [1] was in the range of 5 to 15 µM.
Still for that read-out and setting: as for `COc1cncc(C(=O)Nc2ccccc2)n1` [Example 197], the figure is more than 30 µM; as for `COc1cncc(NCc2ccc(N3CCCCC3)nc2)n1` [Example 84], 5 to 15 µM.
